Columns and labels:
Format in all cases: in vivo
[1] = test system: Alternaria solani; test: Test E: tomato early blight, preventive spray on tomato seedlings, visual disease rating; conditions: 200 ppm, 100 = 100% disease control, 0 = no disease control relative to controls; for pest or weed control at 200 ppm: Alternaria solani
Text: General protocol for preparing test suspensions for Tests A-F: […] The resulting test suspensions were then used in Tests A-F. The test suspensions were sprayed to the point of run-off on the test plants. All results are for 200 ppm (equivalent to a rate of 500 g/ha) except where followed by “*” which indicates 40 ppm. The test suspension was sprayed to the point of run-off on tomato seedlings. […] A dash (-) indicates no test results. All results are for 200 ppm except where followed by “*”, which indicates 40 ppm.

[2] = test system: Erysiphe graminis; test: Test A: wheat powdery mildew, preventive spray on wheat seedlings, visual disease rating; conditions: 200 ppm, 100 = 100% disease control, 0 = no disease control relative to controls; for pest or weed control at 200 ppm: Blumeria graminis, 192 h
Text: General protocol for preparing test suspensions for Tests A-F: […] The resulting test suspensions were then used in Tests A-F. The test suspensions were sprayed to the point of run-off on the test plants. All results are for 200 ppm (equivalent to a rate of 500 g/ha) except where followed by “*” which indicates 40 ppm. The test suspension was sprayed to the point of run-off on wheat seedlings. The following day the seedlings were inoculated with a spore dust of Erysiphe graminis, (the causal agent of wheat powdery mildew) and incubated in a growth chamber at 20° C. for 8 days, after which time visual disease ratings were made. […] A dash (-) indicates no test results. All results are for 200 ppm except where followed by “*”, which indicates 40 ppm.

[3] = test system: Puccinia recondita f. sp. tritici; test: Test B: wheat leaf rust, preventive spray on wheat seedlings, visual disease rating; conditions: 200 ppm, 100 = 100% disease control, 0 = no disease control relative to controls; for pest or weed control at 200 ppm: 192 h
Text: General protocol for preparing test suspensions for Tests A-F: […] The resulting test suspensions were then used in Tests A-F. The test suspensions were sprayed to the point of run-off on the test plants. All results are for 200 ppm (equivalent to a rate of 500 g/ha) except where followed by “*” which indicates 40 ppm. The test suspension was sprayed to the point of run-off on wheat seedlings. The following day the seedlings were inoculated with a spore suspension of Puccinia recondita f. sp. tritici (the causal agent of wheat leaf rust) and incubated in a saturated atmosphere at 20° C. for 24 h, and then moved to a growth chamber at 20° C. for 7 days, after which time visual disease ratings were made. […] A dash (-) indicates no test results. All results are for 200 ppm except where followed by “*”, which indicates 40 ppm.

[4] = test system: Septoria nodorum; test: Test D: wheat glume blotch, preventive spray on wheat seedlings, visual disease rating; conditions: 200 ppm, 100 = 100% disease control, 0 = no disease control relative to controls; for pest or weed control at 200 ppm: Parastagonospora nodorum
Text: General protocol for preparing test suspensions for Tests A-F: […] The resulting test suspensions were then used in Tests A-F. The test suspensions were sprayed to the point of run-off on the test plants. All results are for 200 ppm (equivalent to a rate of 500 g/ha) except where followed by “*” which indicates 40 ppm. The test suspension was sprayed to the point of run-off on wheat seedlings. The following day the seedlings were inoculated with a spore suspension of Septoria nodorum (the causal agent of wheat glume blotch) and incubated in a saturated atmosphere at 20° C. for 48 h, and then moved to a growth chamber at 20° C. for 7 days, after which time visual disease ratings were made. […] A dash (-) indicates no test results. All results are for 200 ppm except where followed by “*”, which indicates 40 ppm.

[5] = test system: Botrytis cinerea; test: Test F: tomato Botrytis, preventive spray on tomato seedlings, visual disease rating; conditions: 200 ppm, 100 = 100% disease control, 0 = no disease control relative to controls; for pest or weed control at 200 ppm: Botrytis cinerea
Text: General protocol for preparing test suspensions for Tests A-F: […] The resulting test suspensions were then used in Tests A-F. The test suspensions were sprayed to the point of run-off on the test plants. All results are for 200 ppm (equivalent to a rate of 500 g/ha) except where followed by “*” which indicates 40 ppm. The test suspension was sprayed to the point of run-off on tomato seedlings. The following day the seedlings were inoculated with a spore suspension of Botrytis cinerea (the causal agent of tomato Botrytis) and incubated in saturated atmosphere at 20° C. for 48 h, and then moved to a growth chamber at 24° C. for 3 days, after which time visual disease ratings were made. […] A dash (-) indicates no test results. All results are for 200 ppm except where followed by “*”, which indicates 40 ppm.

[6] = test system: Septoria tritici; test: Test C: wheat leaf blotch, preventive spray on wheat seedlings, visual disease rating; conditions: 200 ppm, 100 = 100% disease control, 0 = no disease control relative to controls; for pest or weed control at 200 ppm: Zymoseptoria tritici, 504 h
Text: General protocol for preparing test suspensions for Tests A-F: […] The resulting test suspensions were then used in Tests A-F. The test suspensions were sprayed to the point of run-off on the test plants. All results are for 200 ppm (equivalent to a rate of 500 g/ha) except where followed by “*” which indicates 40 ppm. The test suspension was sprayed to the point of run-off on wheat seedlings. The following day the seedlings were inoculated with a spore suspension of Septoria tritici (the causal agent of wheat leaf blotch) and incubated in saturated atmosphere at 20° C. for 48 h, and moved to a growth chamber at 20° C. for 19 additional days, after which time visual disease ratings were made. […] A dash (-) indicates no test results. All results are for 200 ppm except where followed by “*”, which indicates 40 ppm.

Structure (SMILES) | pest or weed control at 200 ppm [1] | pest or weed control at 200 ppm [2] | pest or weed control at 200 ppm [3] | pest or weed control at 200 ppm [4] | pest or weed control at 200 ppm [5] | pest or weed control at 200 ppm [6] | Test E rating (disease control, tomato early blight) [1] | Test A rating (disease control, wheat powdery mildew) [2] | Test B rating (disease control, wheat leaf rust) [3] | Test D rating (disease control, wheat glume blotch) [4] | Test F rating (disease control, tomato Botrytis) [5] | Test C rating (disease control, wheat leaf blotch) [6]
COc1cc(OC)cc(-c2c(-c3ccccc3)nnc(C)c2-c2ccc(F)cc2)c1 [Compound 1, 4-(3,5-dimethoxyphenyl)-5-(4-fluorophenyl)-6-methyl-3-phenylpyridazine] | 72% | 85% | 99% | 0% | 98% | 100% |  |  |  |  |  | 
COc1cc(OC)cc(-c2c(-c3ccccc3F)nnc(C)c2-c2ccc(F)cc2)c1 [Compound 2, 4-(3,5-dimethoxyphenyl)-3-(2-fluorophenyl)-5-(4-fluorophenyl)-6-methylpyridazine] | 99% | 97% | 99% | 0% | 99% | 100% |  |  |  |  |  | 
COc1cc(OC)cc(-c2c(-c3ccccc3)nnc(C)c2-c2ccccc2)c1 [Compound 3] |  |  |  |  |  |  | 0% | 52% | 86% | 0% | 52% | 87%
COc1cc(OC)cc(-c2c(-c3ccccc3F)nnc(C)c2-c2ccccc2)c1 [Compound 4] |  |  |  |  |  |  | 28% | 82% | 96% | 0% | 94% | 84%
COc1cc(OC)cc(-c2c(-c3ccc(F)cc3F)nnc(C)c2-c2ccccc2)c1 [Compound 5] |  |  |  |  |  |  | 0% | 91% | 86% | 0% | 82% | 94%
COc1cc(OC)cc(-c2c(-c3ccccc3)nnc(C)c2-c2ccc(Cl)cc2)c1 [Compound 6] |  |  |  |  |  |  | 36% | 79% | 97% | 0% | 67% | 97%
COc1ccc(-c2c(C)nnc(-c3ccccc3)c2-c2cc(OC)cc(OC)c2)cc1 [Compound 7, 4-(3,5-dimethoxyphenyl)-5-(4-methoxyphenyl)-6-methyl-3-phenylpyridazine] | 96% | 95% | 100% | 90% | 97% | 100% |  |  |  |  |  | 
COc1ccc(-c2c(C)nnc(-c3ccccc3F)c2-c2cc(OC)cc(OC)c2)cc1 [Compound 8, 4-(3,5-dimethoxyphenyl)-3-(2-fluorophenyl)-5-(4-methoxyphenyl)-6-methylpyridazine] | 99% | 97% | 100% | 95% | 98% | 100% |  |  |  |  |  | 
COc1ccc(-c2c(C)nnc(-c3ccc(F)cc3F)c2-c2cc(OC)cc(OC)c2)cc1 [Compound 9, 3-(2,4-difluorophenyl)-4-(3,5-dimethoxyphenyl)-5-(4-methoxyphenyl)-6-methylpyridazine] | 81% | 84% | 91% | 60% | 98% | 100% |  |  |  |  |  | 
COc1cc(OC)cc(-c2c(-c3cccc(F)c3F)nnc(C)c2-c2ccccc2)c1 [Compound 10] |  |  |  |  |  |  | 88% | 97% | 99% | 0% | 95% | 99%

From patent US20110136762A1, “FUNGICIDAL PYRIDAZINES” (E.I. Du Pont de Nemours and Company, priority 2008, published 2011)
